{"source": "patent US20230055441A1", "about": "(NONO INC., priority 2020, published 2023)", "key": {"[1]": {"tested_on": "3-pial vessel occlusion model of stroke", "conditions": "for infarct volume: versus placebo", "experimental": "Treatments were administered subcutaneously as a bolus injection, 60 minutes after the onset of stroke. […] Data is presented as mean±SD, N=10/group. The asterisk (*) represents statistical significance when compared to Placebo (ANOVA, with a Tukey's post-hoc analysis, *P<0.0332, **P<0.0021, ***P<0.0002 and ****P<0.0001)."}, "[2]": {"tested_on": "TNK-tissue plasminogen activator", "experiment": "Degradation in rat plasma with TNK-tissue plasminogen activator", "conditions": "given simultaneously with TNK", "source_text": "(§1) The experiment was repeated using TNK-tissue plasminogen activator in place of tPA."}, "[3]": {"tested_on": "rt-PA", "experiment": "Degradation in rat plasma in vitro with rt-PA"}, "[4]": {"molecular_target": "T1, NMDAR2B:PSD-95 complexes (Rattus norvegicus, UniProt P31016)", "T1 construct": "Cortical stroke areas were collected for analysis; from tissue; host or cells: rat brain, cortical stroke area, after in vivo dosing", "T1 sequence (P31016 whole entry, one chain of several)": "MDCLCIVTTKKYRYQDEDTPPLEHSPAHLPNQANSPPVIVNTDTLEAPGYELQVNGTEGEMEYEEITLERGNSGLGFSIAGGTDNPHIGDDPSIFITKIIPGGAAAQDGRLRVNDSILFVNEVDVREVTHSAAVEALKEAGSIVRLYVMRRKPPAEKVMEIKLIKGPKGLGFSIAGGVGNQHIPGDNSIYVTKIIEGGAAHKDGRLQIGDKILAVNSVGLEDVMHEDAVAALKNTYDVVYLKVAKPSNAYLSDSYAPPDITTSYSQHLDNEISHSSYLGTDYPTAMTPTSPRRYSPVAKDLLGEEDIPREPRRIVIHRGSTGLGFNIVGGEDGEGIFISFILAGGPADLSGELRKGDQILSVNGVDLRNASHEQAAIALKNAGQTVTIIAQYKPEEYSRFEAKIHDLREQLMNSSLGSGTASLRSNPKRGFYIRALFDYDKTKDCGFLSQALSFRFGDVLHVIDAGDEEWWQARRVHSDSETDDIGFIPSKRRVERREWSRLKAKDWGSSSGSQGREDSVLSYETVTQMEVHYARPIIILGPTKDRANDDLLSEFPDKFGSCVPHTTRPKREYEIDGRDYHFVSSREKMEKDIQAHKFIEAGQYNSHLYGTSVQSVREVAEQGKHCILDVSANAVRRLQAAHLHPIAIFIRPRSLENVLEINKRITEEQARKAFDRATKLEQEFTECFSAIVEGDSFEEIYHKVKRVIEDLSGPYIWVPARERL", "experiment": "Dissociation of NMDAR2B:PSD-95 complexes in three pial vessel model (3PVo), immunoprecipitation and Western blotting", "type": "in vivo, Sprague-Dawley rats", "conditions": "7.6 mg/kg 1 hr after stroke onset, brains harvested 2 h after onset, rat 3PVo", "experimental": "Sprague-Dawley rats were subject to three pial vessel model (3PVo). […] Brains were harvested 2 h after stroke onsets. Cortical stroke areas were collected for analysis. Immunoprecipitations were performed with anti-PSD-95 or anti-NMDAR2B. The amount of PSD-95 and NMDAR2B in samples was analyzed by Western blotting. Reduction in PSD-95-NMDAR2B complex formation was assessed by fold decrease of placebo versus treatment."}, "[5]": {"conditions": "2.6 mg/kg dose; cited from earlier work"}, "[6]": {"molecular_target": "PSD95PDZ2 (Homo sapiens, UniProt P78352)", "sequence (P78352 160-246 limits assumed)": "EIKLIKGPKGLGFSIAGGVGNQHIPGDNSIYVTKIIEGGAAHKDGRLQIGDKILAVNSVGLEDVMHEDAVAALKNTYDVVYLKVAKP", "experiment": "Competitive ELISA with biotinylated-NA-1 on coated PSD95PDZ2", "type": "binding", "conditions": "for EC50 compared among NA-1, D-Tat-L-2B9C and D-NA-1: FIG. 12", "experimental": "Binding was evaluated with a competitive ELISA assay. A plate was coated with 1 ug/ml PSD95PDZ2 in 50 mM bicarbonate buffer overnight at 4C. The plate was blocked in 2% BSA in PBST (0.05%) for 2 h at room temperature. […] The wells were washed again, and then incubated with TMB solution for 10 min. The reaction was stopped with 100 ul H2SO4. Absorbance was determined at 450 nm with the synergy H1 reader."}, "[7]": {"molecular_target": "T2, plasmin (Homo sapiens, UniProt P00747)", "T2 construct": "NA-1 was digested with plasmin", "T2 sequence (P00747 581-810 limits assumed, species assumed)": "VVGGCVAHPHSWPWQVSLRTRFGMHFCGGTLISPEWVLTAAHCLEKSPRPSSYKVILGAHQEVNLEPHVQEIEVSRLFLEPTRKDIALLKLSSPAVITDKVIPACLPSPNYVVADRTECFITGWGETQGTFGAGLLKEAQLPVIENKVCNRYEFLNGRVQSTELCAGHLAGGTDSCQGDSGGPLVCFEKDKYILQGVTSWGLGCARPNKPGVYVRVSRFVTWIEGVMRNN", "T2 sequence (P00747 97-580 limits assumed, species assumed)": "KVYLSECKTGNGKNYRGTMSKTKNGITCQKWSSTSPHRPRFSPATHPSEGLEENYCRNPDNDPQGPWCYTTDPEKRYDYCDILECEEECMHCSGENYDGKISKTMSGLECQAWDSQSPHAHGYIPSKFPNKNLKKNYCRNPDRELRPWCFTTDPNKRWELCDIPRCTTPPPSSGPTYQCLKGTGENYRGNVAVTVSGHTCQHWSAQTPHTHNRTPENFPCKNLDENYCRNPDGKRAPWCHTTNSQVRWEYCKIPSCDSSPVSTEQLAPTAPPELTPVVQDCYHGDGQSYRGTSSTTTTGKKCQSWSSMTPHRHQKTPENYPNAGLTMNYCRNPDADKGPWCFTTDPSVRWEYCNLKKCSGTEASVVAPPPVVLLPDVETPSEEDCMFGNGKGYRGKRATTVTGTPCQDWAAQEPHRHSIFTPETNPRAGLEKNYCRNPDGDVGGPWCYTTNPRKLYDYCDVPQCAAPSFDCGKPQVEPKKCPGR", "type": "in vitro ADME"}, "[8]": {"tested_on": "TNK-tissue plasminogen activator", "experiment": "Degradation in human plasma with TNK-tissue plasminogen activator", "conditions": "given simultaneously with TNK", "source_text": "as §1"}, "[9]": {"tested_on": "embolic MCA occlusion model", "experiment": "Embolic MCA occlusion model (eMCAo)", "type": "in vivo"}, "[10]": {"experiment": "Pharmacokinetic analysis in rats by route (subcutaneous, pulmonary instillation, intramuscular, intravenous)", "conditions": "rat", "procedure": "(§2) Rats were anaesthetized in the supine position (Isoflurane 1.5-%) and allowed to breath spontaneously in 0.5 L/min 02. The left femoral artery was cannulated for blood sampling.\n(§3) Test agents were prepared at the stablish concentration in a total volume of vehicle. Pulmonary instillation was performed by intubation with a 14G catheter connected to a 1 cc syringe and the test agent will be delivered through the catheter. Subcutaneous (SQ or SC) injection was injected into the area of the left flank, no more than 2 ml of total volume per site.\n(§4) Each dose was evaluated in 3 rats for each administration strategy. […] For the first experiment, evaluating two different administration routes (SQ and PI), blood samples were collected at 8 different timepoints: Pre and at 7 additional times (1, 2.5, 5, 10, 15, 30, 60 min) post dose (250 ul/sample). For the 24-hour PK curve experiment, blood samples were collected at 11 timepoints: Pre, 2.5, 5, 10, 15, 30, 60 min, 3 hr, 6 hr, 12 hr and 24 hr.\n(§5) HPLC quantification: Plasma was separated from blood and stored at −80° C. until used. Each sample was precipitated by adding 1M HCl (10 ul/100 ul sample) at >80° C., centrifuged (12,000 rpm×15 min) and the precipitate collected. A 5 cm C—18 RP-HPLC column was equilibrated with 10% acetonitrile with 0.1% TFA at 40° C., the sample was injected and run in an Agilent 1260 Infinity Quaternary LC System. (30 min at 1.5 mL/min; gradient from 10% to 35% acetonitrile in 0.1% TFA; Absorbance detected at 220 nm). Standard curves for HPLC were generated from plasma samples spiked with known quantities of test agent."}, "[11]": {"molecular_target": "T2, plasmin", "type": "in vitro ADME", "excerpt": "Plasmin is a serum protease induced by thrombolytic agents, such as tPA. Plasmin cleavage sites can occur on the C-terminal side of basic amino acids residues in a peptide formed of L-amino acids. NA-1 was digested with plasmin and the products analyzed by mass spectrometry. […] However, cleavage at the other two sites may occur to a lesser extent.", "remark": "listed apart in the source"}, "[12]": {"tested_on": "rt-PA", "experiment": "Degradation in human plasma in vitro with rt-PA", "conditions": "given simultaneously with rt-PA (tPA)"}, "[13]": {"experiment": "NA-1 plasma levels after administering NA-1 and tPA to rats", "parameters": "species or system rat", "conditions": "rats in vivo, rt-PA 5.4 mg/kg, versus NA-1 alone"}, "[14]": {"experiment": "Plasma concentrations 15 minutes after subcutaneous dose in rats of the 3-pial vessel occlusion study", "type": "in vivo", "conditions": "rat, single subcutaneous administration 25, 7.6, 2.5 mg/kg", "experimental": "Unlike transient models of stroke in rats where much lower doses are required for neuroprotection, neuroprotection in 3 pial vessel occlusion models of stroke seems to require plasma concentrations of nerinetide at or above 2 ug/mL (or molar equivalent). […] Although the plasma levels continue to increase through about 3 hours then decrease, it is important to achieve rapid accumulation in the blood and brain for emergency indications like stroke. […] For pharmacokinetic sample analysis, calibration standard samples at concentrations of 0, 2.5, 5, 10, 15, 20 and 40 ug/mL of nerinetide were prepared by spiking 1 μL of the appropriate stock to 100 μL of plasma. […] Data is presented as mean±SD."}, "[15]": {"molecular_target": "tPA (Homo sapiens, UniProt P00750)", "sequence (P00750 36-562)": "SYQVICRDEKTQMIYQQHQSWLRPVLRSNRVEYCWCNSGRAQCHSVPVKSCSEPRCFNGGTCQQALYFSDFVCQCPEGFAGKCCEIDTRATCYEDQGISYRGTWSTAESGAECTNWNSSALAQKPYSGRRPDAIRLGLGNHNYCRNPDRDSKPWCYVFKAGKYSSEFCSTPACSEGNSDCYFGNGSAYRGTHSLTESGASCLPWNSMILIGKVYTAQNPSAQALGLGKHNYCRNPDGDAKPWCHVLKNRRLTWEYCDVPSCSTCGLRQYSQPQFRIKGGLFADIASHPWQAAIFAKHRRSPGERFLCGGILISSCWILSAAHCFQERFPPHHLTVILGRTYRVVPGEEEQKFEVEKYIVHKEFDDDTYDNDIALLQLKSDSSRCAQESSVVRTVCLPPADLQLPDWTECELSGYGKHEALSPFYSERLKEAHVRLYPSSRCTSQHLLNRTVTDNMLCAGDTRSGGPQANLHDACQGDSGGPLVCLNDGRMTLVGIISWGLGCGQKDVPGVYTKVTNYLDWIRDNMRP"}, "[16]": {"tested_on": "rt-PA"}, "[17]": {"conditions": "rat, in vivo, 25 mg/kg", "procedure": "as §2, §3, §4, §5"}, "[18]": {"tested_on": "histamine", "conditions": "rat, in vivo, iv, 7.6 mg/kg", "procedure": "Blood samples were collected at 11 timepoints: Pre, 2.5, 5, 10, 15, 30, 60 min, 3 hr, 6 hr, 12 hr and 24 hr. Histamine levels were quantified by using commercially available histamine ELISA assay kit (Histamine ELISA-H1531-K01, Eagle Bioscience). The plates were coated with the plasma samples (50 ul/well) incubated for 60 minutes at room temperature on an orbital shaker with medium frequency. Then 100 ul of enzyme conjugate was added to the wells and incubated for 20 minutes at room temperature. Samples were washed again, and then incubated for 25 minutes at room temperature with TMB solution. The reaction was stopped with 100 ul H2SO4. Absorbance was determined on an ELISA plate reader at 450 nm.\nBlood samples were taken at pre-injection and at 0, 1, 2.5, 5, 10, 15, 30- and 60-minutes post dose and used for histamine levels quantification using commercially available kit."}, "[19]": {"conditions": "without tPA, 7.6 mg/kg IV bolus 1 hour after stroke onset"}, "[20]": {"conditions": "intramuscular versus intravenous"}}, "note": "“Also recorded” adds a separate entry of the source. Read-outs that look alike come from different tables or passages of the source. Square brackets hold non-standard residues; d marks the D form. Ends that are not written are not given here. Peptide text beside a SMILES is read from it."}
{"compound": "YGRKKRRQRRRKLSSIESDV [NA-1]", "values": [{"measurement": "infarct volume", "setting": "[1]; 7.6 mg/kg subcutaneous bolus 60 minutes after onset of stroke", "result": "failed to achieved infarct volume reduction"}, {"measurement": "infarct volume", "setting": "[1]; 25 mg/kg subcutaneous bolus 60 minutes after onset of stroke", "result": "significant reduction in infarct volume"}, {"measurement": "plasma concentration required for neuroprotection", "setting": "[1]; rat, in vivo", "result": "≥ 2000", "unit": "ng/mL"}, {"measurement": "peptide content / degradation in rat plasma with TNK", "setting": "[2]", "result": "rapid degradation; also recorded: reduced"}, {"measurement": "peptide content / degradation in rat plasma with rt-PA", "setting": "[3]; given simultaneously with rt-PA (tPA)", "result": "decayed much more rapidly when tPA was co-administered; also recorded: significantly reduced"}, {"measurement": "time to decay to zero with tPA", "setting": "[3]; treated with tPA", "result": "≤ 15", "unit": "min"}, {"measurement": "dissociation of preformed NMDAR2B:PSD-95 complexes", "setting": "[4]", "result": "able to dissociate preformed NMDAR2B:PSD-95 complexes"}, {"measurement": "effective plasma concentration in human studies", "setting": "[5]", "result": "~10", "unit": "µg/mL"}, {"measurement": "EC50 compared among NA-1, D-Tat-L-2B9C and D-NA-1", "setting": "[6]", "result": "about the same within experimental error"}, {"measurement": "binding to PSD-95 PDZ2 domain", "setting": "[6]; competitive ELISA", "result": "high binding affinity"}, {"measurement": "degradation by plasmin in PBS", "setting": "[7]", "result": "rapidly degraded"}, {"measurement": "peptide content / degradation in human plasma with TNK", "setting": "[8]", "result": "rapid degradation; also recorded: reduced"}, {"measurement": "infarction volume", "setting": "[9]; tPA co-administered (rt-PA 5.4 mg/kg), 7.6 mg/kg IV 1 hour after stroke onset", "result": "reducing its effect"}, {"measurement": "infarction volume", "setting": "[9]; [19]", "result": "significantly reduced infarction volume and right hemisphere swelling"}, {"measurement": "right hemisphere swelling", "setting": "[9]; [19]", "result": "significantly reduced infarction volume and right hemisphere swelling"}, {"measurement": "AUC, intramuscular", "setting": "[10]; [20]", "result": "somewhat higher AUC"}, {"measurement": "Cmax, intramuscular", "setting": "[10]; [20]", "result": "lower CMax"}, {"measurement": "half-life, intramuscular", "setting": "[10]; [20]", "result": "higher half-life"}, {"measurement": "half-life, subcutaneous", "setting": "[10]; subcutaneous versus same dose intravenous NA-1", "result": "longer half-life"}, {"measurement": "Cmax, subcutaneous", "setting": "[10]; subcutaneous, 25 mg/kg (Table 4), NA-1 versus IV NA-1, others versus subcutaneous NA-1", "result": "much lower CMax"}, {"measurement": "AUC / plasma exposure, subcutaneous", "setting": "[10]; subcutaneous, 25 mg/kg (Table 4), NA-1 versus IV NA-1, others versus subcutaneous NA-1, 25 mg/kg", "result": "somewhat lower AUC"}, {"measurement": "plasmin cleavage sites", "setting": "[11]", "result": "cleavage at seven of nine potential sites"}, {"measurement": "peptide content / degradation in human plasma with rt-PA", "setting": "[12]", "result": "decayed much more rapidly when tPA was co-administered; also recorded: significantly reduced"}, {"measurement": "AUC when administered simultaneously with rt-PA", "setting": "[13]", "result": "significantly reduced"}, {"measurement": "Cmax when administered simultaneously with rt-PA", "setting": "[13]", "result": "significantly reduced"}, {"measurement": "dose proportionality between treatment dose and Cmax", "setting": "[14]", "result": "dose proportionality"}]}
{"compound": "CC[C@H](C)[C@H](NC(=O)[C@H](CO)NC(=O)[C@H](CO)NC(=O)[C@H](CC(C)C)NC(=O)[C@H](CCCCN)NC(=O)[C@@H](CCCNC(=N)N)NC(=O)[C@@H](CCCNC(=N)N)NC(=O)[C@@H](CCCNC(=N)N)NC(=O)[C@@H](CCC(N)=O)NC(=O)[C@@H](CCCNC(=N)N)NC(=O)[C@@H](CCCNC(=N)N)NC(=O)[C@@H](CCCCN)NC(=O)[C@@H](CCCCN)NC(=O)[C@@H](CCCNC(=N)N)NC(=O)CNC(=O)[C@H](N)Cc1ccc(O)cc1)C(=O)N[C@@H](CCC(=O)O)C(=O)N[C@@H](CO)C(=O)N[C@@H](CC(=O)O)C(=O)N[C@H](C(=O)O)C(C)C", "note": "[D-TAT-L-2B9c] (H-[dY]G[dR][dK][dK][dR][dR][dQ][dR][dR][dR]KLSSIESDV-OH; N-terminus and C-terminus assumed)", "values": [{"measurement": "degradation by tPA or TNK in PBS without plasma", "setting": "[15]", "result": "no degradation"}, {"measurement": "peptide content / degradation in human plasma with rt-PA", "setting": "[16]", "result": "resistant to proteolysis"}, {"measurement": "IC50", "setting": "[6]", "result": "< 5", "unit": "µM"}, {"measurement": "EC50 compared among NA-1, D-Tat-L-2B9C and D-NA-1", "setting": "[6]", "result": "about the same within experimental error"}, {"measurement": "degradation by plasmin in PBS", "setting": "[7]", "result": "resistant to plasmin cleavage"}, {"measurement": "AUC / plasma exposure, subcutaneous", "setting": "[17]", "result": "also increased Cmax and AUC relative to subcutaneous NA-1 but not to the same extent"}, {"measurement": "Cmax, subcutaneous", "setting": "[17]", "result": "also increased Cmax and AUC relative to subcutaneous NA-1 but not to the same extent"}, {"measurement": "histamine release", "setting": "[18]", "result": "did result in significant histamine release"}]}
